Key:
Format in all cases: cell-based
human iPS cells [1] = experiment: Glucose consumption and total cell count of human iPS cells cultured in suspension with LPA or S1P; settings: 0.2 or 1 μg/mL, compared with BSA-ff alone; for number of cells (total cell count): Day 5, n=3 (FIG. 13); for glucose consumption: Days 2 to 5, n=3 (FIG. 12)
Protocol: Human iPS cell suspensions were prepared using substantially the same protocol as in Example 5. To each cell suspension were added LPA or S1P at a final concentration of 0.2 μg/mL or 1 μg/mL, and BSA-ff at a final concentration of 5 mg/mL and Y-27632 (Wako Pure Chemical Industries, Ltd.) at a final concentration of 10 μM. As a control, cell suspensions were prepared using the same protocol as in Example 5. That is, prepared were the cell suspensions solely containing BSA-ff at a final concentration of 5 mg/mL and Y-27632 at a final concentration of 10 μM.
The above cell suspensions were subjected to suspension culture for […] under the same conditions as in Example 5. At Day 2 of culture, the culture medium was changed every day with Essential 8™ culture medium supplemented with 5 mg/mL BSA-ff. At Days 2, 3, 4, and 5, the concentration of glucose in the culture supernatant was measured to calculate glucose consumption. In addition, at Day 5 of culture, cell aggregates were collected, dispersed using Accutase, and suspended in Essential 8™ culture medium supplemented with 5 mg/mL BSA-ff. A portion of each cell suspension was stained with trypan blue and the number of cells was counted. The above cell suspensions were centrifuged at 300 g for 5 min, the supernatant was then removed, and the cells were washed with PBS (phosphate buffered saline). Next, the cells were fixed with 4% PFA (paraformaldehyde) at room temperature for 20 min, then washed 3 times with PBS, and permeabilized with cold methanol at −20° C. overnight. After washed 3 times with PBS, the cells were blocked with 3% FBS (fetal calf serum)/PBS and stained using a fluorescently labeled anti-SOX2 antibody (Cat. No. 656110, Biolegend, Inc.) and a fluorescently labeled anti-OCT4 antibody (Cat. No. 653703, Biolegend, Inc.) at 4° C. for 1 h. After washed once with 3% FBS (fetal calf serum)/PBS, the cells were made to pass through a cell strainer. The resulting cells were analyzed on FACSVerse.
The following procedure was used to measure glucose consumption. Specifically, the culture supernatant was recovered at medium change and a bioanalyzer (Y512950), manufactured by YSI, Inc., was used to measure the remaining glucose amount. In this way, the glucose consumption was calculated.
A total cell count was measured at Day 5 of culture. The following procedure was used to measure the total cell count. Specifically, the cell aggregates that had been formed were treated with TrypLE Select for 5 to 10 min, pipetted using a blue tip to monodisperse as cells, and stained with trypan blue. After that, the number of cells was counted using a hemocytometer to determine the total cell count.

human iPS cells [2] = experiment: Effect of LPA or S1P on cell aggregation of human iPS cells in suspension culture, microscopic observation; settings: for φ, width of the widest portion of cell aggregate (average±standard deviation): 1 day, 30 aggregates; for size of spherical cell aggregates: 0.2 μg/mL, BSA-ff 5 mg/mL, Y-27632 10 μM, 1 day suspension culture (FIG. 8)
Protocol: Human iPS cells that had been cultured using the protocol of Example 1 were treated with TrypLE Select, EDTA solution, or Accutase for 3 to 5 min and were detached. After dispersed as single cells, the cells were made to pass through a cell strainer with a pore size of 40 μm (Becton, Dickinson and Company) to monodisperse as single cells. The resulting cells were suspended in Essential 8™ medium containing a final concentration of 10 μM Y-27632 (Wako Pure Chemical Industries, Ltd.). A portion thereof was then stained with trypan blue and the number of cells was counted. Suspensions containing 2×10^5 cells per ml were prepared. To each cell suspension were added lipid-free bovine serum albumin (BSA-ff; CultureSure albumin, Wako Pure Chemical Industries, Ltd.) at a final concentration of 5 mg/mL and Y-27632 (Wako Pure Chemical Industries, Ltd.) at a final concentration of 10 μM. In addition, the following lipids were each added to the cell suspension and the cells were subjected to rotary shaking culture for 1 day under the same conditions as in Example 2 to culture human iPS cells in suspension. After one day of the suspension culture, the cells were observed under a microscope.
The lipids and additives used in this study are as follows: • LPA (Lysophosphatidic acid) (1-O-9Z-octadecenoyl-sn-glyceryl-3-phosphoric acid, a sodium salt, Cat. No. 62215, Cayman, Inc.; with an oleyl group at sn-1 position).
S1P (Sphingosine-1-phosphoric acid) (2S-amino-1-(dihydrogen phosphate)-4E-octadecene-1,3R-diol, Cat. No. 62570, Cayman, Inc.)
LPA at 0.2 μg/mL or S1P at 0.2 μg/mL was added to the human iPS cell suspension.
(§1) Human iPS cell suspensions were prepared using substantially the same protocol as in Example 5. LPA was added as a sodium salt at a concentration of 0.00128 μg/mL, 0.0064 μg/mL, 0.032 μg/mL, 0.16 μg/mL, 0.8 μg/mL, 4 μg/mL, 20 μg/mL, or 100 μg/mL. To each suspension were added BSA-ff at a final concentration of 5 mg/mL and Y-27632 (Wako Pure Chemical Industries, Ltd.) at a final concentration of 10 μM. The cells were cultured in suspension for 1 day under the same conditions as in Example 5 and then observed under a microscope.
Inspected were 30 cell aggregates on an observation image obtained when the concentration of LPA was from 0.16 to 100 μg/mL. While being compared using a micrograph scale, the width (referred to as “φ”) of the widest portion of each cell aggregate was measured to calculate an average±standard deviation.
as §1, with “[…]” for “LPA”, “free form” for “sodium salt”
Inspected were 30 cell aggregates on an observation image obtained when the concentration of S1P was from 0.032 to 100 μg/mL. While being compared using a micrograph scale, the width (referred to as “φ”) of the widest portion of each cell aggregate was measured to calculate an average±standard deviation. […]

human iPS cells [3] = experiment: Formation of aggregates of human iPS cells by rotary shaking suspension culture with KSR or its protein-based components; settings: factor added instead of KSR; micrographs at Day 1 (FIG. 6)
Protocol: TkDN4-M cell line (Non-Patent Literature 1) was used as human iPS cells. The human iPS cells were seeded on cell culture dishes coated with Matrigel (Corning, Inc.) or Vitronectin (Life Technologies Japan Ltd.). A culture medium, which was mTeSR1 (STEMCELL Technologies, Inc.) or Essential 8™ (Life Technologies Japan Ltd.), was used for maintenance culture. As a cell detachment agent at the time of cell passage, TrypLE Select (Life Technologies Japan Ltd.) was used when the cells were cultured on Matrigel; and 0.02% EDTA (ethylene diamine tetraacetic acid) solution or Accutase (Life Technologies Japan Ltd.) was used when the cells were cultured on Vitronectin. In addition, when the cells were seeded, Y-27632 (Wako Pure Chemical Industries, Ltd.) at a concentration of 10 μM was added to a culture medium. The culture medium was changed every day. For experiments, human iPS cells (the number of passage was 50 or less) were used.
Human iPS cells were treated with TrypLE Select or EDTA solution for 3 to 5 min and were detached. After dispersed as single cells, the cells were made to pass through a cell strainer with a pore size of 40 μm (Becton, Dickinson and Company). […] A portion thereof was then stained with trypan blue and the number of cells was counted. […]

Molecule | number of cells (total cell count) (human iPS cells [1]) | glucose consumption (human iPS cells [1]) | φ, width of the widest portion of cell aggregate (average±standard deviation) (human iPS cells [2]; 0.16 μg/mL) [μm] | size of spherical cell aggregates (human iPS cells [2]) | φ, width of the widest portion of cell aggregate (average±standard deviation) (human iPS cells [2]; 0.8 μg/mL) [μm] | φ, width of the widest portion of cell aggregate (average±standard deviation) (human iPS cells [2]; 4 μg/mL) [μm] | φ, width of the widest portion of cell aggregate (average±standard deviation) (human iPS cells [2]; 20 μg/mL) [μm] | φ, width of the widest portion of cell aggregate (average±standard deviation) (human iPS cells [2]; 100 μg/mL) [μm] | diameter of cell aggregates (human iPS cells [2]; S1P 0.0064 μg/mL or less, 1 day (FIG. 10)) [mm] | formation of cell aggregates (human iPS cells [2]; S1P 0.032 to 100 μg/mL, 1 day (FIG. 10)) | diameter of cell aggregates (human iPS cells [2]; LPA 0.032 μg/mL or less, 1 day (FIG. 9)) [mm] | formation of cell aggregates (human iPS cells [2]; LPA 0.16 to 100 μg/mL, 1 day (FIG. 9)) | formation of aggregates (human iPS cells [3])
CCCCCCCCCCCCC/C=C/[C@@H](O)[C@@H](N)COP(=O)(O)O [S1P, 2S-amino-1-(dihydrogen phosphate)-4E-octadecene-1,3R-diol] | larger | larger | 142.4±16.4 | about 100 μm | 118.5±21.8 | 109.9±23.1 | 94.0±19.4 | 89.0±19.5 | ≥ 1 | cell aggregates with a substantially uniform size were formed |  |  | 
1-O-9Z-octadecenoyl-sn-glyceryl-3-phosphoric acid, a sodium salt [LPA] | larger | larger | 124.9±26.5 | about 100 μm | 68.2±9.8 | 57.2±8.7 | 39.9±8.0 | 41.6±9.9 |  |  | ≥ 1 | cell aggregates with a substantially uniform size were formed | 
insulin: insulin (Sigma-Aldrich Co. LLC.), lipid-free protein-based component of KSR |  |  |  |  |  |  |  |  |  |  |  |  | large aggregates
transferrin: transferrin (Sigma-Aldrich Co. LLC.), lipid-free protein-based component of KSR |  |  |  |  |  |  |  |  |  |  |  |  | large aggregates

Reference: patent publication US20170327779A1, “METHOD FOR PRODUCING CELL AGGREGATES” (Kaneka Corporation, priority 2015, published 2017)
